Test results: PubChem BioAssay (NCI)
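Test compounds were applied to cells in 96-well plates for 48 hours at 5 doses. TGI denotes the concentration required for complete inhibition of growth.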

Tested on: UO-31 renal
Assay: DTP human tumour cell line panel, 48 h

Compound | TGI [µM]
COC12c3ccccc3-c3ccccc3C1[C@H]1C(=O)OC(=O)[C@H]12 (some centres undefined) | > 10
Cc1ccc(S(=O)(=O)NCCSCCSCCNS(=O)(=O)c2ccc(C)cc2)cc1 | > 100
COc1cc(C(c2ccc3c(c2)OCO3)N2C(=O)CCC2C(=O)O)cc(OC)c1OC (centres undefined) | > 100

Tested on: HS 578T breast
Assay: DTP human tumour cell line panel, 48 h

Compound | TGI [µM]
CCOC(=O)[C@H](Cc1ccc(O)cc1)N=C1[C@H]2CCC[C@]1(O)[C@@](C)([N+](=O)[O-])C2 | > 100
CCNC1=C(NC(=O)CC)C(=O)c2ccccc2C1=O | > 100
CC1(C)OC2C(=O)C=C(COCc3ccccc3)C2O1 (centres undefined) | > 100
O=C(CSC1=NCCN1)Nc1ccccc1 | 65.9
CCC1(O)C(=O)OCc2c1cc1n(c2=O)Cc2cc3cc(N)ccc3nc2-1 (centres undefined) | > 95.2
COC12c3ccccc3-c3ccccc3C1[C@H]1C(=O)OC(=O)[C@H]12 (some centres undefined) | > 10
Cc1ccc(S(=O)(=O)NCCSCCSCCNS(=O)(=O)c2ccc(C)cc2)cc1 | > 100
COc1cc(C(c2ccc3c(c2)OCO3)N2C(=O)CCC2C(=O)O)cc(OC)c1OC (centres undefined) | > 100

Tested on: SR leukemia
Assay: DTP human tumour cell line panel, 48 h

Compound | TGI [µM]
CCOC(=O)[C@H](Cc1ccc(O)cc1)N=C1[C@H]2CCC[C@]1(O)[C@@](C)([N+](=O)[O-])C2 | > 100
CCNC1=C(NC(=O)CC)C(=O)c2ccccc2C1=O | > 100
CC1(C)OC2C(=O)C=C(COCc3ccccc3)C2O1 (centres undefined) | > 100
O=C(CSC1=NCCN1)Nc1ccccc1 | > 100
CCC1(O)C(=O)OCc2c1cc1n(c2=O)Cc2cc3cc(N)ccc3nc2-1 (centres undefined) | 0.0122
COC12c3ccccc3-c3ccccc3C1[C@H]1C(=O)OC(=O)[C@H]12 (some centres undefined) | > 10
Cc1ccc(S(=O)(=O)NCCSCCSCCNS(=O)(=O)c2ccc(C)cc2)cc1 | > 100

Tested on: NCI-H522 lung
Assay: DTP human tumour cell line panel, 48 h

Compound | TGI [µM]
CCOC(=O)[C@H](Cc1ccc(O)cc1)N=C1[C@H]2CCC[C@]1(O)[C@@](C)([N+](=O)[O-])C2 | > 100
CCNC1=C(NC(=O)CC)C(=O)c2ccccc2C1=O | > 100
CC1(C)OC2C(=O)C=C(COCc3ccccc3)C2O1 (centres undefined) | 38
O=C(CSC1=NCCN1)Nc1ccccc1 | 38.7
CCC1(O)C(=O)OCc2c1cc1n(c2=O)Cc2cc3cc(N)ccc3nc2-1 (centres undefined) | 0.27
COC12c3ccccc3-c3ccccc3C1[C@H]1C(=O)OC(=O)[C@H]12 (some centres undefined) | > 10
Cc1ccc(S(=O)(=O)NCCSCCSCCNS(=O)(=O)c2ccc(C)cc2)cc1 | > 100
COc1cc(C(c2ccc3c(c2)OCO3)N2C(=O)CCC2C(=O)O)cc(OC)c1OC (centres undefined) | > 100

Tested on: CCRF-CEM leukemia
Assay: DTP human tumour cell line panel, 48 h

Compound | TGI [µM]
CCOC(=O)[C@H](Cc1ccc(O)cc1)N=C1[C@H]2CCC[C@]1(O)[C@@](C)([N+](=O)[O-])C2 | > 100
CCNC1=C(NC(=O)CC)C(=O)c2ccccc2C1=O | > 100
CC1(C)OC2C(=O)C=C(COCc3ccccc3)C2O1 (centres undefined) | > 100
O=C(CSC1=NCCN1)Nc1ccccc1 | > 100
CCC1(O)C(=O)OCc2c1cc1n(c2=O)Cc2cc3cc(N)ccc3nc2-1 (centres undefined) | < 0.01
COC12c3ccccc3-c3ccccc3C1[C@H]1C(=O)OC(=O)[C@H]12 (some centres undefined) | > 10
Cc1ccc(S(=O)(=O)NCCSCCSCCNS(=O)(=O)c2ccc(C)cc2)cc1 | > 100
COc1cc(C(c2ccc3c(c2)OCO3)N2C(=O)CCC2C(=O)O)cc(OC)c1OC (centres undefined) | > 100

Tested on: SNB-75 CNS
Assay: DTP human tumour cell line panel, 48 h

Compound | TGI [µM]
CCNC1=C(NC(=O)CC)C(=O)c2ccccc2C1=O | > 100
O=C(CSC1=NCCN1)Nc1ccccc1 | 43.5
CCC1(O)C(=O)OCc2c1cc1n(c2=O)Cc2cc3cc(N)ccc3nc2-1 (centres undefined) | 0.0375
COC12c3ccccc3-c3ccccc3C1[C@H]1C(=O)OC(=O)[C@H]12 (some centres undefined) | > 10
Cc1ccc(S(=O)(=O)NCCSCCSCCNS(=O)(=O)c2ccc(C)cc2)cc1 | 68.7
COc1cc(C(c2ccc3c(c2)OCO3)N2C(=O)CCC2C(=O)O)cc(OC)c1OC (centres undefined) | > 100

Tested on: MOLT-4 leukemia
Assay: DTP human tumour cell line panel, 48 h

Compound | TGI [µM]
CCOC(=O)[C@H](Cc1ccc(O)cc1)N=C1[C@H]2CCC[C@]1(O)[C@@](C)([N+](=O)[O-])C2 | > 100
CCNC1=C(NC(=O)CC)C(=O)c2ccccc2C1=O | > 100
CC1(C)OC2C(=O)C=C(COCc3ccccc3)C2O1 (centres undefined) | > 100
O=C(CSC1=NCCN1)Nc1ccccc1 | > 100
CCC1(O)C(=O)OCc2c1cc1n(c2=O)Cc2cc3cc(N)ccc3nc2-1 (centres undefined) | < 0.01
COC12c3ccccc3-c3ccccc3C1[C@H]1C(=O)OC(=O)[C@H]12 (some centres undefined) | > 10
Cc1ccc(S(=O)(=O)NCCSCCSCCNS(=O)(=O)c2ccc(C)cc2)cc1 | > 100
COc1cc(C(c2ccc3c(c2)OCO3)N2C(=O)CCC2C(=O)O)cc(OC)c1OC (centres undefined) | > 100

Tested on: CAKI-1 renal
Assay: DTP human tumour cell line panel, 48 h

Compound | TGI [µM]
CCOC(=O)[C@H](Cc1ccc(O)cc1)N=C1[C@H]2CCC[C@]1(O)[C@@](C)([N+](=O)[O-])C2 | > 100
CC1(C)OC2C(=O)C=C(COCc3ccccc3)C2O1 (centres undefined) | > 100
O=C(CSC1=NCCN1)Nc1ccccc1 | > 100
CCC1(O)C(=O)OCc2c1cc1n(c2=O)Cc2cc3cc(N)ccc3nc2-1 (centres undefined) | 0.343
COC12c3ccccc3-c3ccccc3C1[C@H]1C(=O)OC(=O)[C@H]12 (some centres undefined) | > 10
COc1cc(C(c2ccc3c(c2)OCO3)N2C(=O)CCC2C(=O)O)cc(OC)c1OC (centres undefined) | > 100

Tested on: SK-MEL-2 melanoma
Assay: DTP human tumour cell line panel, 48 h

Compound | TGI [µM]
CC1(C)OC2C(=O)C=C(COCc3ccccc3)C2O1 (centres undefined) | > 100
O=C(CSC1=NCCN1)Nc1ccccc1 | 44.5
CCC1(O)C(=O)OCc2c1cc1n(c2=O)Cc2cc3cc(N)ccc3nc2-1 (centres undefined) | 0.826
COC12c3ccccc3-c3ccccc3C1[C@H]1C(=O)OC(=O)[C@H]12 (some centres undefined) | > 10
COc1cc(C(c2ccc3c(c2)OCO3)N2C(=O)CCC2C(=O)O)cc(OC)c1OC (centres undefined) | > 100

Tested on: SF-295 CNS
Assay: DTP human tumour cell line panel, 48 h

Compound | TGI [µM]
CCOC(=O)[C@H](Cc1ccc(O)cc1)N=C1[C@H]2CCC[C@]1(O)[C@@](C)([N+](=O)[O-])C2 | > 100
CCNC1=C(NC(=O)CC)C(=O)c2ccccc2C1=O | > 100
CC1(C)OC2C(=O)C=C(COCc3ccccc3)C2O1 (centres undefined) | > 100
O=C(CSC1=NCCN1)Nc1ccccc1 | > 100
CCC1(O)C(=O)OCc2c1cc1n(c2=O)Cc2cc3cc(N)ccc3nc2-1 (centres undefined) | 0.36
COC12c3ccccc3-c3ccccc3C1[C@H]1C(=O)OC(=O)[C@H]12 (some centres undefined) | > 10
Cc1ccc(S(=O)(=O)NCCSCCSCCNS(=O)(=O)c2ccc(C)cc2)cc1 | > 100
COc1cc(C(c2ccc3c(c2)OCO3)N2C(=O)CCC2C(=O)O)cc(OC)c1OC (centres undefined) | > 100

Tested on: SK-MEL-5 melanoma
Assay: DTP human tumour cell line panel, 48 h

Compound | TGI [µM]
CCOC(=O)[C@H](Cc1ccc(O)cc1)N=C1[C@H]2CCC[C@]1(O)[C@@](C)([N+](=O)[O-])C2 | > 100
CCNC1=C(NC(=O)CC)C(=O)c2ccccc2C1=O | > 100
CC1(C)OC2C(=O)C=C(COCc3ccccc3)C2O1 (centres undefined) | 25.8
CCC1(O)C(=O)OCc2c1cc1n(c2=O)Cc2cc3cc(N)ccc3nc2-1 (centres undefined) | 0.0761
COC12c3ccccc3-c3ccccc3C1[C@H]1C(=O)OC(=O)[C@H]12 (some centres undefined) | > 10
Cc1ccc(S(=O)(=O)NCCSCCSCCNS(=O)(=O)c2ccc(C)cc2)cc1 | 18
COc1cc(C(c2ccc3c(c2)OCO3)N2C(=O)CCC2C(=O)O)cc(OC)c1OC (centres undefined) | > 100

Tested on: NCI-H226 lung
Assay: DTP human tumour cell line panel, 48 h

Compound | TGI [µM]
CCOC(=O)[C@H](Cc1ccc(O)cc1)N=C1[C@H]2CCC[C@]1(O)[C@@](C)([N+](=O)[O-])C2 | > 100
CCNC1=C(NC(=O)CC)C(=O)c2ccccc2C1=O | > 100
CC1(C)OC2C(=O)C=C(COCc3ccccc3)C2O1 (centres undefined) | 61.5
COC12c3ccccc3-c3ccccc3C1[C@H]1C(=O)OC(=O)[C@H]12 (some centres undefined) | > 10
Cc1ccc(S(=O)(=O)NCCSCCSCCNS(=O)(=O)c2ccc(C)cc2)cc1 | > 100
COc1cc(C(c2ccc3c(c2)OCO3)N2C(=O)CCC2C(=O)O)cc(OC)c1OC (centres undefined) | > 100

Tested on: DU-145 prostate
Assay: DTP human tumour cell line panel, 48 h

Compound | TGI [µM]
CCOC(=O)[C@H](Cc1ccc(O)cc1)N=C1[C@H]2CCC[C@]1(O)[C@@](C)([N+](=O)[O-])C2 | > 100
CCNC1=C(NC(=O)CC)C(=O)c2ccccc2C1=O | > 100
CC1(C)OC2C(=O)C=C(COCc3ccccc3)C2O1 (centres undefined) | > 100
O=C(CSC1=NCCN1)Nc1ccccc1 | > 100
CCC1(O)C(=O)OCc2c1cc1n(c2=O)Cc2cc3cc(N)ccc3nc2-1 (centres undefined) | < 0.01
COC12c3ccccc3-c3ccccc3C1[C@H]1C(=O)OC(=O)[C@H]12 (some centres undefined) | > 10
Cc1ccc(S(=O)(=O)NCCSCCSCCNS(=O)(=O)c2ccc(C)cc2)cc1 | > 100
COc1cc(C(c2ccc3c(c2)OCO3)N2C(=O)CCC2C(=O)O)cc(OC)c1OC (centres undefined) | > 100

Tested on: 786-0 renal
Assay: DTP human tumour cell line panel, 48 h

Compound | TGI [µM]
CCOC(=O)[C@H](Cc1ccc(O)cc1)N=C1[C@H]2CCC[C@]1(O)[C@@](C)([N+](=O)[O-])C2 | > 100
CCNC1=C(NC(=O)CC)C(=O)c2ccccc2C1=O | > 100
CC1(C)OC2C(=O)C=C(COCc3ccccc3)C2O1 (centres undefined) | > 100
O=C(CSC1=NCCN1)Nc1ccccc1 | 50.1
CCC1(O)C(=O)OCc2c1cc1n(c2=O)Cc2cc3cc(N)ccc3nc2-1 (centres undefined) | 0.0469
COC12c3ccccc3-c3ccccc3C1[C@H]1C(=O)OC(=O)[C@H]12 (some centres undefined) | > 10
COc1cc(C(c2ccc3c(c2)OCO3)N2C(=O)CCC2C(=O)O)cc(OC)c1OC (centres undefined) | > 100

Tested on: MALME-3M melanoma
Assay: DTP human tumour cell line panel, 48 h

Compound | TGI [µM]
CCOC(=O)[C@H](Cc1ccc(O)cc1)N=C1[C@H]2CCC[C@]1(O)[C@@](C)([N+](=O)[O-])C2 | > 100
CCNC1=C(NC(=O)CC)C(=O)c2ccccc2C1=O | 60.1
CC1(C)OC2C(=O)C=C(COCc3ccccc3)C2O1 (centres undefined) | 45
O=C(CSC1=NCCN1)Nc1ccccc1 | 60
CCC1(O)C(=O)OCc2c1cc1n(c2=O)Cc2cc3cc(N)ccc3nc2-1 (centres undefined) | 1.33
COC12c3ccccc3-c3ccccc3C1[C@H]1C(=O)OC(=O)[C@H]12 (some centres undefined) | > 10
COc1cc(C(c2ccc3c(c2)OCO3)N2C(=O)CCC2C(=O)O)cc(OC)c1OC (centres undefined) | > 100

Tested on: ACHN renal
Assay: DTP human tumour cell line panel, 48 h

Compound | TGI [µM]
CCOC(=O)[C@H](Cc1ccc(O)cc1)N=C1[C@H]2CCC[C@]1(O)[C@@](C)([N+](=O)[O-])C2 | > 100
CCNC1=C(NC(=O)CC)C(=O)c2ccccc2C1=O | > 100
